As usually defined, the EC50 is the concentration giving half of the maximal effect. A high value points to a less potent agent.

The assay is described as follows: Concentration required to achieve 50% protection of MT-4 cell from the HIV-1 induced cytopathogenicity was determined by the MTT method. For orientation: Cytopathic effects are the visible damage that an infection or toxin causes in cultured cells.
Consider `O=C(c1ccc(Cl)cc1Cl)N(C(=S)OCCOc1ccccc1)c1ccccc1` [(2,4-Dichloro-benzoyl)-phenyl-thiocarbamic acid O-(2-phenoxy-ethyl) ester], for which the EC50 is 11.6 µM.
For `O=C1c2ccccc2C(=O)N1CCOC(=S)N(C(=O)c1cccs1)c1ccccc1Cl` [(2-Chloro-phenyl)-(thiophene-2-carbonyl)-thiocarbamic acid O-[2-(1,3-dioxo-1,3-dihydro-isoindol-2-yl)-ethyl] ester] the value was 11 µM; for `CCc1ccccc1N(C(=O)c1cccs1)C(=S)OCCN1C(=O)c2ccccc2C1=O` [(2-Ethyl-phenyl)-(thiophene-2-carbonyl)-thiocarbamic acid O-[2-(1,3-dioxo-1,3-dihydro-isoindol-2-yl)-ethyl] ester], 11 µM; for `COc1ccccc1N(C(=O)c1cccs1)C(=S)OCCN1C(=O)c2ccccc2C1=O` [(2-Methoxy-phenyl)-(thiophene-2-carbonyl)-thiocarbamic acid O-[2-(1,3-dioxo-1,3-dihydro-isoindol-2-yl)-ethyl] ester], 11 µM.
In the case of `CC(COc1ccccc1)OC(=S)N(C(=O)COc1ccccc1)c1ccccc1` (centres undefined) [(2-Phenoxy-acetyl)-phenyl-thiocarbamic acid O-(1-methyl-2-phenoxy-ethyl) ester] it was 1.4 µM.
In the case of `O=C(COc1ccccc1)N(C(=S)OCCOc1ccccc1)c1ccccc1` [(2-Phenoxy-acetyl)-phenyl-thiocarbamic acid O-(2-phenoxy-ethyl) ester] it was 6 µM; in that of `O=C(c1cc(Cl)cc(Cl)c1)N(C(=S)OCCOc1ccccc1)c1ccccc1` [(3,5-Dichloro-benzoyl)-phenyl-thiocarbamic acid O-(2-phenoxy-ethyl) ester], 8.8 µM.
For the molecule `CC(=O)c1cccc(N(C(=O)c2cccs2)C(=S)OCCN2C(=O)c3ccccc3C2=O)c1` [(3-Acetyl-phenyl)-(thiophene-2-carbonyl)-thiocarbamic acid O-[2-(1,3-dioxo-1,3-dihydro-isoindol-2-yl)-ethyl] ester], the EC50 was 6 µM.
The molecule `O=C1c2ccccc2C(=O)N1CCOC(=S)N(C(=O)c1cccs1)c1cccc(Br)c1` [(3-Bromo-phenyl)-(thiophene-2-carbonyl)-thiocarbamic acid O-[2-(1,3-dioxo-1,3-dihydro-isoindol-2-yl)-ethyl] ester] returned an EC50 of 1.2 µM.
As for `CC(COc1ccccc1)OC(=S)N(C(=O)c1cccs1)c1cccc(Cl)c1` (centres undefined) [(3-Chloro-phenyl)-(thiophene-2-carbonyl)-thiocarbamic acid O-(1-methyl-2-phenoxy-ethyl) ester], the EC50 was determined as 11 µM.
In the case of `O=C1c2ccccc2C(=O)N1CCOC(=S)N(C(=O)c1cccs1)c1cccc(Cl)c1` [(3-Chloro-phenyl)-(thiophene-2-carbonyl)-thiocarbamic acid O-[2-(1,3-dioxo-1,3-dihydro-isoindol-2-yl)-ethyl] ester] it was 6 µM.
In the case of `O=C1c2ccccc2C(=O)N1CCOC(=S)N(C(=O)c1cccs1)c1cccc(F)c1` [(3-Fluoro-phenyl)-(thiophene-2-carbonyl)-thiocarbamic acid O-[2-(1,3-dioxo-1,3-dihydro-isoindol-2-yl)-ethyl] ester] it was 11 µM; in that of `COc1cccc(N(C(=O)c2cccs2)C(=S)OCCN2C(=O)c3ccccc3C2=O)c1` [(3-Methoxy-phenyl)-(thiophene-2-carbonyl)-thiocarbamic acid O-[2-(1,3-dioxo-1,3-dihydro-isoindol-2-yl)-ethyl] ester], 3.5 µM; in that of `CC(COc1ccccc1)OC(=S)N(C(=O)c1cccc([N+](=O)[O-])c1)c1ccccc1` (centres undefined) [(3-Nitro-benzoyl)-phenyl-thiocarbamic acid O-(1-methyl-2-phenoxy-ethyl) ester], 3.6 µM.
For `O=C1c2ccccc2C(=O)N1CCOC(=S)N(C(=O)c1cccs1)c1cccc([N+](=O)[O-])c1` [(3-Nitro-phenyl)-(thiophene-2-carbonyl)-thiocarbamic acid O-[2-(1,3-dioxo-1,3-dihydro-isoindol-2-yl)-ethyl] ester] the value was 0.38 µM; for `O=C(c1ccc(Cl)c([N+](=O)[O-])c1)N(C(=S)OCCOc1ccccc1)c1ccccc1` [(4-Chloro-3-nitro-benzoyl)-phenyl-thiocarbamic acid O-(2-phenoxy-ethyl) ester], 7.6 µM; for `O=C(c1ccc(Cl)cc1)N(C(=S)OCCOc1ccccc1)c1ccccc1` [(4-Chloro-benzoyl)-phenyl-thiocarbamic acid O-(2-phenoxy-ethyl) ester], 10.3 µM.
In turn, `O=C(c1ccc(Cl)cc1)N(C(=S)OCCc1ccccc1)c1ccccc1` [(4-Chloro-benzoyl)-phenyl-thiocarbamic acid O-phenethyl ester] returned an EC50 of 4 µM.
`CC(COc1ccccc1)OC(=S)N(C(=O)c1cccs1)c1ccc(Cl)cc1` (centres undefined) [(4-Chloro-phenyl)-(thiophene-2-carbonyl)-thiocarbamic acid O-(1-methyl-2-phenoxy-ethyl) ester] registered an EC50 of 11 µM. This EC50 is about 2.8-fold higher than that of the molecule before.
With `CCN(CC)c1ccc(N(C(=O)c2cccs2)C(=S)OCCN2C(=O)c3ccccc3C2=O)cc1` [(4-Diethylamino-phenyl)-(thiophene-2-carbonyl)-thiocarbamic acid O-[2-(1,3-dioxo-1,3-dihydro-isoindol-2-yl)-ethyl] ester], a half-maximal response (EC50) required 11 µM. That is a double-digit micromolar value.
`CCc1ccc(N(C(=O)c2ccco2)C(=S)OCCN2C(=O)c3ccccc3C2=O)cc1` [(4-Ethyl-phenyl)-(furan-2-carbonyl)-thiocarbamic acid O-[2-(1,3-dioxo-1,3-dihydro-isoindol-2-yl)-ethyl] ester] had an EC50 of 0.03 µM.
In the case of `O=C1c2ccccc2C(=O)N1CCOC(=S)N(C(=O)c1cccs1)c1ccc(F)cc1` [(4-Fluoro-phenyl)-(thiophene-2-carbonyl)-thiocarbamic acid O-[2-(1,3-dioxo-1,3-dihydro-isoindol-2-yl)-ethyl] ester] it was 0.1 µM; in that of `O=C1c2ccccc2C(=O)N1CCOC(=S)N(C(=O)c1cccs1)c1ccc(I)cc1` [(4-Iodo-phenyl)-(thiophene-2-carbonyl)-thiocarbamic acid O-[2-(1,3-dioxo-1,3-dihydro-isoindol-2-yl)-ethyl] ester], 0.01 µM.
`Cc1ccc(C(=O)N(C(=S)OCCOc2ccccc2)c2ccccc2)cc1` [(4-Methyl-benzoyl)-phenyl-thiocarbamic acid O-(2-phenoxy-ethyl) ester] displayed an EC50 of 9.9 µM. This EC50 is about 990-fold higher than that of the molecule before.
On to `CC(COc1ccccc1)OC(=S)N(C(=O)c1cccs1)c1ccc([N+](=O)[O-])cc1` (centres undefined) [(4-Nitro-phenyl)-(thiophene-2-carbonyl)-thiocarbamic acid O-(1-methyl-2-phenoxy-ethyl) ester], for which a half-maximal response (EC50) required 6 µM.
In the case of `O=C1c2ccccc2C(=O)N1CCOC(=S)N(C(=O)c1cccs1)c1ccc([N+](=O)[O-])cc1` [(4-Nitro-phenyl)-(thiophene-2-carbonyl)-thiocarbamic acid O-[2-(1,3-dioxo-1,3-dihydro-isoindol-2-yl)-ethyl] ester] it was 0.01 µM; in that of `O=C1c2ccccc2C(=O)N1CCOC(=S)N(C(=O)c1ccco1)c1ccc([N+](=O)[O-])cc1` [(Furan-2-carbonyl)-(4-nitro-phenyl)-thiocarbamic acid O-[2-(1,3-dioxo-1,3-dihydro-isoindol-2-yl)-ethyl] ester], 0.008 µM.
In turn, `CC(COc1ccccc1)OC(=S)N(C(=O)c1ccco1)c1ccccc1` (centres undefined) [(Furan-2-carbonyl)-phenyl-thiocarbamic acid O-(1-methyl-2-phenoxy-ethyl) ester] came in with an EC50 of 1.3 µM.
As for `O=C(c1ccco1)N(C(=S)OCCOc1ccccc1)c1ccccc1` [(Furan-2-carbonyl)-phenyl-thiocarbamic acid O-(2-phenoxy-ethyl) ester], the EC50 came out at 8.4 µM.
With `O=C(c1ccco1)N(C(=S)OCCc1ccccc1)c1ccccc1` [(Furan-2-carbonyl)-phenyl-thiocarbamic acid O-phenethyl ester], the response was half-maximal at 4.3 µM (EC50).
For `O=C1c2ccccc2C(=O)N1CCOC(=S)N(C(=O)c1cccs1)c1cccc(C(F)(F)F)c1` [(Thiophene-2-carbonyl)-(3-trifluoromethyl-phenyl)-thiocarbamic acid O-[2-(1,3-dioxo-1,3-dihydro-isoindol-2-yl)-ethyl] ester] the value was 11 µM; for `Cc1cccc(N(C(=O)c2cccs2)C(=S)OCCN2C(=O)c3ccccc3C2=O)c1` [(Thiophene-2-carbonyl)-m-tolyl-thiocarbamic acid O-[2-(1,3-dioxo-1,3-dihydro-isoindol-2-yl)-ethyl] ester], 10 µM; for `Cc1ccccc1N(C(=O)c1cccs1)C(=S)OCCN1C(=O)c2ccccc2C1=O` [(Thiophene-2-carbonyl)-o-tolyl-thiocarbamic acid O-[2-(1,3-dioxo-1,3-dihydro-isoindol-2-yl)-ethyl] ester], 11 µM.
With `Cc1ccc(N(C(=O)c2cccs2)C(=S)OCCN2C(=O)c3ccccc3C2=O)cc1` [(Thiophene-2-carbonyl)-p-tolyl-thiocarbamic acid O-[2-(1,3-dioxo-1,3-dihydro-isoindol-2-yl)-ethyl] ester], the EC50 came out at 0.4 µM.
In the case of `CC(=O)Oc1ccccc1C(=O)N(C(=S)OCCOc1ccccc1)c1ccccc1` [Acetic acid 2-(2-phenoxy-ethoxythiocarbonyl)-phenyl-aminocarbonyl)-phenyl ester] it was 9.5 µM; in that of `O=C1c2ccccc2C(=O)N1CCOC(=S)N(C(=O)c1ccccc1)c1ccc(Br)cc1` [Benzoyl-(4-bromo-phenyl)-thiocarbamic acid O-[2-(1,3-dioxo-1,3-dihydro-isoindol-2-yl)-ethyl] ester], 0.035 µM; in that of `O=C(c1ccccc1)N(C(=S)OCCOc1ccccc1)c1ccc(F)cc1` [Benzoyl-(4-fluoro-phenyl)-thiocarbamic acid O-(2-phenoxy-ethyl) ester], 4 µM.
For `O=C(c1ccccc1)N(C(=S)OCCOc1ccccc1)C1CCCCC1` [Benzoyl-cyclohexyl-thiocarbamic acid O-(2-phenoxy-ethyl) ester] the value was 200 µM.
On to `CC(COc1ccccc1)OC(=S)N(C(=O)c1ccccc1)c1ccccc1` (centres undefined) [Benzoyl-phenyl-thiocarbamic acid O-(1-methyl-2-phenoxy-ethyl) ester], for which the EC50 came out at 1.3 µM.

The values are drawn from BindingDB's records for doi:10.1021/jm0209984 (Universit&#224, 2003).
